Source: patent US9901637B2, “Vitamin D3 and analogs thereof for treating alopecia” (priority 2009, dated 2018)
Like-named read-outs stand apart in the source and are kept apart here.

Experiments:
HEKa cells [1] = assay: Protective effect of calcitriol on HEKa cells against chemotherapeutic drugs; type: cell-based, human; conditions: 0.1 μg/mL calcitriol
Experimental: These include: erlotinib (Tarceva), an EGFR Tyr kinase inhibitor; gefutubib (Iressa), an EGFR Tyr kinase inhibitor; sorafenib, inhibitor of several Tyr kinases (Raf, VEGF-R2, c-kit, PDGR-R); Dasatinib, a BCR/ABL Tyr kinase inhibitor; and staurosporin, a relatively nonspecific kinase inhibitor.
The drug treatment period was usually three days. At the end of the three days, the background OD of the 96-well plate was read at 280 nm, before 20 μL of the “Substrate Cell Titer 96 Aqueous One Solution Reagent” (Promega) was added to each well. The plate was returned to the 37° C. incubator, and its OD at 490 nm was read each hour until an OD of approximately 1.5 was reached. The net OD increase was calculated by subtracting the pre-substrate OD reading.
The impact of the drug on the cells was calculated by comparing the OD at different concentrations in relation to the OD of the control wells (without the drug).

PC-3 = assay: Cell viability assay after calcitriol exposure for two passages; type: cell-based; conditions: PC-3, 0.1 μg/mL calcitriol for two passages
Experimental: Then these pretreated cells were utilized to set up the cell-based assay. […] Three commonly used chemotherapy drugs (doxorubicin, cisplatin and erlotinib) were selected to evaluate calcitriol treated cells. […] In these experiments, the commercial drugs were serially diluted, starting at a concentration 4-times higher than the final desired concentration for cell incubation.

[2] = tested on: PaCa2 (pancreatic carcinoma); assay: Cell growth/viability assay, calcitriol with or without chemotherapy drug; type: cell-based
HEKa cells [3] = assay: Antibody microarray (Panorama XP725) of calcitriol-treated HEKa; type: cell-based, human; conditions: calcitriol-treated (24 hour), 3-hour sample as baseline
Experimental: Briefly, the treated HEKa cells were first harvested and then extracted to obtain a soluble protein supernatant. […] The excess dye was removed from the protein sample, and the resulting labeled protein samples were used for microarray incubation. To determine the expression level of a particular target protein at a later time point (e.g., at hour 6 or 24) relative to that at an earlier time point (e.g., at hour 3), the samples were labeled by different labels (e.g., 3-hour extract labeled with Cy3,6-hour or 24-hour extract labeled with Cy5). […] After incubation with the microarray chip (according to manufactures recommended protocols), the chips were washed and dried. The microarrays were then scanned with a fluorescent laser scanner to measure the relative fluorescence intensity of the Cy3 and Cy5 dyes. If the amount of a particular type of target protein increased (or decreased) over time, more (or less) of the dye associated with the later time point (e.g., Cy5) will be retained by the microarray. For example, in this experiment, the earliest time point (e.g., 3-hour) was used as a baseline to determine the relative protein expression level at two later time points (e.g., 6-hour vs. 24-hour). If more Cy5 is retained by the array between 6-24 hours, the expression level of the target protein increased over the time period. […]

HepG2 (liver cancer) = assay: Cell growth/viability assay, calcitriol with or without chemotherapy drug; type: cell-based
HEKa cells [4] = assay: Proteomic analysis (2-D gel electrophoresis) of calcitriol-treated HEKa; type: cell-based, human; conditions: 0.1 μg/mL calcitriol
Experimental: The cell pellets were then analyzed using proteomic methods, such as 2-D gel and Western blot analysis. […] In all, analysis of about 458 protein spots in the comparative study was performed, comparing the control sample against the 3-, 6-, and 24-hour treatment samples. Six spots showing statistically significant differential changes were identified. These spots were excised, and their protein contents subjected to sequence identification by trypsin digestion and mass spectrometry characterization.

[5] = tested on: NIH-3T3 (immortalized fibroblast); assay: Cell growth/viability assay, calcitriol with or without chemotherapy drug; type: cell-based
[6] = tested on: Primary human epidermal keratinocytes (HEKa); assay: Real-time PCR array, Neuroscience and Ion Channels Array, calcitriol-treated HEKa; type: cell-based; conditions: HEKa cells, 0.1 μg/mL calcitriol, three independent experiments
Experimental: Changes in mRNA levels were evaluated using real-time PCR quantification to assess mRNA levels in preselected subsets containing 80 pathway specific targets (see Appendix). The PCR array analysis utilized two groups of genes—those related to Heat Shock Proteins (SABiosciences), and those related to Neuroscience Ion Channels and Transporters (SABioscience). Primary human epidermal keratinocytes (HEKa) were maintained in Epilife Medium (Cascade Biologics, Inc., Portland Oreg.) along with Human Keratinocyte Growth Supplement (Cascade Biologics, Inc., Portland Oreg.). […] Vehicle control group of cells were treated with 5 mL media containing 1 μL of ethanol. Cells were harvested 3, 6, 16, 24, 48, or 72 hours after the start of the treatment. Cells were lysed for RNA isolation at different treatment times using the RNeasy Mini kit (Qiagen, Inc., Valencia Calif.) following the manufacturer's instructions. RNA was quantified by measuring optical density at 260 nm. First Strand Synthesis: […] Products from the first strand synthesis were diluted with water, mixed with the SYBR green master mix (SABiosciences, Frederick Md.) and loaded onto PCR arrays. Real time PCR was run on the PCR Arrays (Heat Shock Protein Arrays, and Neuroscience and Ion Channel Arrays) (SABiosciences, Frederick Md.) on a Biorad CFX96. Data analyses were performed using the PCR array data analysis software available on the SABiosciences website.

SKMEL-28 (melanoma) = assay: Cell growth/viability assay, calcitriol with or without chemotherapy drug; type: cell-based

C=C1/C(=C\C=C2/CCC[C@]3(C)[C@@H]([C@H](C)CCCC(C)(C)O)CC[C@@H]23)C[C@@H](O)C[C@@H]1O [Calcitriol, 1,25-dihydroxyvitamin D3]
protective effect against 5-FU (HEKa cells [1]): mild protective effect | protective effect against Paxlitaxol (paclitaxel) (HEKa cells [1]): some protective effects | protective effect against gemcitabine (HEKa cells [1]): mild protective effect | protective effect against irinotecan (HEKa cells [1]): positive protective effect | protective effect against tamoxifen (HEKa cells [1]): weak | protective effect against the cytotoxic effect of doxorubicin (HEKa cells [1]): did not appear to provide a significant protective effect | protection against alkylating agents cisplatin and carboplatin (HEKa cells [1]; low dosage levels): moderate level of protection | protective effect against kinase inhibitor drugs (erlotinib, gefitinib, sorafenib, dasatinib, staurosporin) (HEKa cells [1]; low drug dosage levels): protected the HEKa cells | response to other drugs (doxorubucin, cisplatin, erlotinib) after calcitriol exposure (PC-3): did not alter | effect of calcitriol on cell growth ([2]; PaCa2): no significant growth promoting or growth inhibiting effects | effect on the cytotoxic effect of Doxorubicin ([2]; PaCa-2): did not appear to appreciably alter | 5-FU ED50 curve with versus without calcitriol ([2]; PaCa-2, 0.1 μg/mL calcitriol): not significantly different | response to other drugs (doxorubucin, cisplatin, erlotinib) after calcitriol exposure ([2]; PaCa-2, 0.1 μg/mL calcitriol for two passages): did not alter | Target Proteins with Decreased (>2-fold) Protein Levels Following Calcitriol Treatment (value = protein) (HEKa cells [3]): Transforming Growth Factorb pan and WAVE and Protein Tyrosine Phosphatase PEST and CD40 and Crk II and Growth Factor Independence1 and Serine Threonine Protein and Cathepsin D | Stratum Corneum, Calcitriol Recovered, Mean ± SD (Female Minipigs, 1 μg/mL dermal twice daily 7 days): 0.76 ± 1.3 (3) ng/cm2 | Stratum Corneum, Calcitriol Recovered, Mean ± SD (Female Minipigs, 3 μg/mL dermal twice daily 7 days): 1.12 ± 1.49(3) ng/cm2 | Stratum Corneum, Calcitriol Recovered, Mean ± SD (Female Minipigs, 10 μg/mL dermal twice daily 7 days): 1.65 ± 1.80 (3) ng/cm2 | Stratum Corneum, Calcitriol Recovered, Mean ± SD (Female Minipigs, 30 μg/mL dermal twice daily 7 days): 20.2 ± 11.7 (3) ng/cm2 | Stratum Corneum, Calcitriol Recovered, Mean ± SD (Male Minipigs (1 animal), 100 μg/mL dermal twice daily 7 days): 118.1 ± 11.4 (1) ng/cm2 | Stratum Corneum, Calcitriol Recovered, Mean ± SD (Male Minipigs, 1 μg/mL dermal twice daily 7 days): 56.1 ± 17.4 (3) ng/cm2 | Stratum Corneum, Calcitriol Recovered, Mean ± SD (Male Minipigs, 3 μg/mL dermal twice daily 7 days): 62.4 ± 7.91 (3) ng/cm2 | Stratum Corneum, Calcitriol Recovered, Mean ± SD (Male Minipigs, 10 μg/mL dermal twice daily 7 days): 59.6 ± 14.1 (3) ng/cm2 | Stratum Corneum, Calcitriol Recovered, Mean ± SD (Male Minipigs, 30 μg/mL dermal twice daily 7 days): 54.6 ± 32.5 (3) ng/cm2 | applied dose correlation to tissue level in the epidermis (minipigs, calcitriol concentrations from 3 to 100 μg/mL): near linear increase | effect on the cytotoxic effect of Doxorubicin (HepG2 (liver cancer); Hep-G2): did not appear to appreciably alter | 5-FU ED50 curve with versus without calcitriol (HepG2 (liver cancer); Hep-G2, 0.1 μg/mL calcitriol): not significantly different | response to other drugs (doxorubucin, cisplatin, erlotinib) after calcitriol exposure (HepG2 (liver cancer); Hep-G2, 0.1 μg/mL calcitriol for two passages): did not alter | concentrations giving calcitriol growth inhibition (HepG2 (liver cancer); HepG2): > 0.5 µg/mL | concentrations giving calcitriol growth stimulation (HepG2 (liver cancer); HepG2): 0.05 to 0.25 µg/mL | Glutathione S-transferase (GST) Response (HEKa cells [4]; at 3, 6, and 24 hours, 2-D gel spot 4): up at 3, | S100 A13 Response (HEKa cells [4]; at 6 and 24 hours, spot 14): up at | Galectin 1 (LGALS1) Response (HEKa cells [4]; at 6 and 24 hours, spot 27): up at | Keratin 1 (KRT1) Response (HEKa cells [4]; at 6 hours, spot 2): up at | effect of calcitriol on cell growth [5]: no significant growth promoting or growth inhibiting effects | effect on the cytotoxic effect of Doxorubicin [5]: did not appear to appreciably alter | SLC1A1 mRNA Regulation Pattern ([6]; at 16 hrs): upregulated | KCNN4 mRNA Regulation Pattern ([6]; at 48 hours): upregulated at 48 | KCNB2 mRNA Regulation Pattern ([6]; until 24 hours): upregulated until | effect of calcitriol on cell growth (SKMEL-28 (melanoma); SKMEL-28): no significant growth promoting or growth inhibiting effects | effect on the cytotoxic effect of Doxorubicin (SKMEL-28 (melanoma); SKMEL-28): did not appear to appreciably alter | 5-FU ED50 curve with versus without calcitriol (SKMEL-28 (melanoma); SKMEL-28, 0.1 μg/mL calcitriol): not significantly different
